Data reported in US9168329B2, “Beta-peptides with antifungal activity” (Wisconsin Alumni Research Foundation, priority 2006, dated 2015).
Values after ≈ are worked out from the molar mass of the structure shown. Where two headings read alike, the source gives them in different places. Square brackets hold non-standard residues; d marks the D form. Ends that are not written are not given here. Peptide text beside a SMILES is read from it.

Key:
[1] = tested on: Candida albicans (SC5314, ATCC 24433, ATCC 90028); assay type: cell-based; conditions: for MIC: SC5314
Experimental: Minimum inhibitory concentration assay. Minimum inhibitory concentrations (MIC) for the β-peptides were determined using the broth microdilution assay described by the Committee for Clinical and Laboratory Standards (formerly known as the National Committee for Clinical Laboratory Standards) (National Committee for Clinical Laboratory Standards Reference method for broth dilution antifungal susceptibility testing of yeasts: approved standard—second edition; NCCLS document M27-A2; NCCLS: Wayne, Pa., 2002). Three strains of Candida albicans were used: SC5314, ATCC 24433, and ATCC 90028. Cells were grown for 24 hours on Sabouraud dextrose agar at 30° C. After 24 hours of growth, the cells were suspended in 0.145 M saline, and the concentration was adjusted to between 1×10^6 cells/mL and 5×10^6 cells/mL in saline. The working suspension was obtained by diluting the suspension 1:1000 in RPMI 1640 (with L-glutamine and without sodium bicarbonate, Invitrogen) buffered with 0.145 mol/L 3-(N-morpholino) propanesulfonic acid (MOPS).
Twofold serial dilutions of stock solutions of α- or β-peptides or amphotericin B (Calbiochem, solubilized in dimethyl sulfoxide) were made in RPMI 1640, and 100 μL aliquots were put into 96-well plates (Falcon). An equal volume of the cell suspension was added to the wells for a total volume of 200 μL. Growth controls and sterility controls were included.
Plates were incubated at 35° C. for 48 h and then visually inspected for fungal growth. […] Experiments were performed in duplicate and repeated on at least two different days.

[2] = tested on: human red blood cells (hRBC); assay: Hemolysis assay; assay type: cell-based
Experimental: Hemolysis assay. The hemolysis assay was performed using human red blood cells (hRBC) as described previously (Raguse, et al. J. Am. Chem. Soc. 2002, 124, 12774-12785; Porter, et al. J. Am. Chem. Soc. 2005, 127, 11516-11529). The hRBC were washed three times in TRIS-buffered saline (TBS; 10 mM TRIS, 150 mM NaCl, pH 7.2) and then diluted to a concentration of 1% (v/v) in TBS. The hRBC suspension (80 μL) was added to twofold dilutions of peptides in TBS (20 μL) in a 96-well plate (Falcon). Wells containing hRBC treated with 20 μL TBS provided a negative control, and wells with high concentrations of the peptide melittin (Sigma) served as a positive control. After incubating at 37° C. for 1 h, plates were centrifuged, and 50 μL of the supernatant was diluted with 50 μL of water in a fresh 96-well plate. The absorbance of the diluted supernatant was measured at 405 nm, and the percent hemolysis for each well was calculated from
[formula] where A405^peptide is the absorbance for the supernatant of hRBC treated with peptide, A405^buffer is the absorbance for the supernatant of hRBC in TBS, and A405^completlysis is the average absorbance for the supernatant of cells treated with melittin at concentrations of 50-400 μg/mL. Experiments were performed in duplicate on at least two different days. Biofilm Antifungal Susceptibility Testing

[3] = pH 7, physiological ionic strength
[4] = average over three C. albicans strains, pH 7, physiological ionic strength, Table 1 prints no unit

Molecule | Average MIC ([1]; SC5314, pH 7) [µg/mL] | antifungal activity in the planktonic NCCLS assay (in words) [1, 3] | % Hemolysis at MIC [2] [%] | also measured
CC[C@H](C)[C@H](NC(=O)CN)C(=O)NCC(=O)N[C@@H](CCCCN)C(=O)N[C@@H](Cc1ccccc1)C(=O)N[C@@H](CC(C)C)C(=O)N[C@@H](Cc1c[nH]cn1)C(=O)N[C@@H](C)C(=O)N[C@@H](C)C(=O)N[C@@H](CCCCN)C(=O)N[C@@H](CCCCN)C(=O)N[C@@H](Cc1ccccc1)C(=O)N[C@@H](C)C(=O)N[C@@H](CCCCN)C(=O)N[C@@H](C)C(=O)N[C@@H](Cc1ccccc1)C(=O)N[C@H](C(=O)N[C@@H](C)C(=O)N[C@@H](CCC(=O)O)C(=O)N[C@H](C(=O)N[C@@H](CCSC)C(=O)N[C@@H](CC(N)=O)C(=O)N[C@@H](CO)C(N)=O)[C@@H](C)CC)C(C)C [L-Magainin 2 derivative, reference compound] (H-GIGKFLHAAKKFAKAFVAEIMNS-NH2; N-terminus assumed) | >128 | neither cecropin B nor a magainin derivative displays any activity | 48 | 
CC(C)[C@@H](CC(=O)N[C@@H](CCCCN)CC(=O)N[C@H](CC(=O)N[C@H](CC(=O)N[C@@H](CCCCN)CC(=O)N[C@H](CC(=O)N[C@H](CC(=O)N[C@@H](CCCCN)CC(N)=O)C(C)C)C(C)C)C(C)C)C(C)C)NC(=O)C[C@@H](NC(=O)C[C@@H](N)Cc1ccc(O)cc1)C(C)C [β-peptide 4, β^3Tyr-(β^3Val-β^3Val-β^3Lys)3] | 69 |  | 9 | antifungal activity in the planktonic NCCLS assay (in words) ([1]; pH 7, physiological ionic strength, listed as 4): substantially weaker antifungal activity; antifungal activity in the planktonic NCCLS assay (in words) ([1]; pH 7, physiological ionic strength, listed as β^3Tyr-(β^3Val-β^3Val-β^3Lys)3): showed activity in the planktonic assay
cecropin B (KWKVFKKIEKMGRNIRNGIVKAGPAIAVLGEAKAL; ends and bridges not checked; UniProt P01508 27-61, looked up) [amphiphilic host-defense α-peptide, reference compound] |  | neither cecropin B nor a magainin derivative displays any activity |  | 
β^3Tyr-(ACHC-β^3Val-β^3Arg)3 |  | showed activity in the planktonic assay |  | 
NCCCC[C@@H](CC(N)=O)NC(=O)C[C@H](Cc1ccccc1)NC(=O)[C@H]1CCCC[C@@H]1NC(=O)C[C@H](CCCCN)NC(=O)C[C@H](Cc1ccccc1)NC(=O)[C@H]1CCCC[C@@H]1NC(=O)C[C@H](CCCCN)NC(=O)C[C@H](Cc1ccccc1)NC(=O)[C@H]1CCCC[C@@H]1NC(=O)C[C@@H](N)Cc1ccc(O)cc1 [β-peptide 3, β^3Tyr-(ACHC-β^3Phe-β^3Lys)3] | 8 |  | 80 | 
NCCCC[C@H](CC(N)=O)NC(=O)C[C@@H](Cc1ccccc1)NC(=O)[C@@H]1CCCC[C@H]1NC(=O)C[C@@H](CCCCN)NC(=O)C[C@@H](Cc1ccccc1)NC(=O)[C@@H]1CCCC[C@H]1NC(=O)C[C@@H](CCCCN)NC(=O)C[C@@H](Cc1ccccc1)NC(=O)[C@@H]1CCCC[C@H]1NC(=O)C[C@H](N)Cc1ccc(O)cc1 [(R)β^3Tyr-[(R,R)ACHC—(R)β^3Phe-(R)β^3Lys]3] |  |  |  | MIC [1]: 8 µg/mL (≈ 5.41 µM)
CC(C)[C@@H](CC(=O)N[C@H]1CCCC[C@@H]1C(=O)N[C@@H](CCCCN)CC(=O)N[C@H](CC(=O)N[C@H]1CCCC[C@@H]1C(=O)N[C@H]1CCCC[C@@H]1C(=O)N[C@@H](CCCCN)CC(N)=O)C(C)C)NC(=O)C[C@@H](NC(=O)C[C@@H](N)CCCCN)C(C)C [β-peptide 7, β^3Lys-β^3Val-β^3Val-ACHC-β^3Lys-β^3Val-ACHC-ACHC-β^3Lys] |  | lack of antifungal activity |  | 
CC(C)C[C@@H](CC(=O)N[C@@H](CCCCN)CC(=O)N[C@H]1CCCC[C@@H]1C(=O)N[C@H](CC(=O)N[C@@H](CCCCN)CC(=O)N[C@H]1CCCC[C@@H]1C(=O)N[C@H](CC(=O)N[C@@H](CCCCN)CC(N)=O)CC(C)C)CC(C)C)NC(=O)[C@H]1CCCC[C@@H]1NC(=O)C[C@@H](N)Cc1ccc(O)cc1 [β-peptide 2, β^3Tyr-(ACHC-β^3Leu-β^3Lys)3] | 11 |  | 73 | 
C9-β^3Tyr-(ACHC-ACHC-β^3Lys)3 |  |  |  | Average MIC [1, 4]: 16 µg/mL
CC(C)C[C@@H](CC(=O)N[C@H]1CCCC[C@@H]1C(=O)N[C@@H](CCCCN)CC(N)=O)NC(=O)C[C@H](CCCCN)NC(=O)[C@H]1CCCC[C@@H]1NC(=O)C[C@H](CC(C)C)NC(=O)C[C@H](CCCCN)NC(=O)[C@H]1CCCC[C@@H]1NC(=O)C[C@H](CC(C)C)NC(=O)C[C@@H](N)Cc1ccc(O)cc1 [β^3Tyr-(β^3Leu-ACHC-β^3Lys)3] |  |  |  | MIC [1]: 16 µg/mL (≈ 11.6 µM)
CC(C)[C@@H](CC(=O)N[C@@H](CCCCN)CC(N)=O)NC(=O)[C@H]1CCCC[C@@H]1NC(=O)C[C@H](CCCCN)NC(=O)C[C@@H](NC(=O)[C@H]1CCCC[C@@H]1NC(=O)C[C@H](CCCCN)NC(=O)C[C@@H](NC(=O)[C@H]1CCCC[C@@H]1N)C(C)C)C(C)C [β-peptide 6, (ACHC-β^3Val-β^3Lys)3] |  |  |  | Average MIC [1, 4]: 17 µg/mL; antifungal activity in the planktonic NCCLS assay (in words) ([1]; pH 7, physiological ionic strength, listed as 6): average MIC is indistinguishable relative to β^3Tyr-containing variant (1); antifungal activity in the planktonic NCCLS assay (in words) ([1]; pH 7, physiological ionic strength, listed as (ACHC-β^3Val-β^3Lys)3): showed activity in the planktonic assay; % Hemolysis at MIC ([2]; human red blood cells, at the average MIC): 5%
NCCCC[C@@H](CC(N)=O)NC(=O)[C@H]1CCCC[C@@H]1NC(=O)[C@H]1CCCC[C@@H]1NC(=O)C[C@H](CCCCN)NC(=O)[C@H]1CCCC[C@@H]1NC(=O)[C@H]1CCCC[C@@H]1NC(=O)C[C@H](CCCCN)NC(=O)[C@H]1CCCC[C@@H]1NC(=O)[C@H]1CCCC[C@@H]1NC(=O)C[C@@H](N)Cc1ccc(O)cc1 [β-peptide 5, β^3Tyr-(ACHC-ACHC-β^3Lys)3] | 21 |  | 7 | MIC [1]: 16 µg/mL (≈ 11.7 µM)
CC[C@@H](C)[C@@H](NC(=O)CN)C(=O)NCC(=O)N[C@H](CCCCN)C(=O)N[C@H](Cc1ccccc1)C(=O)N[C@H](CC(C)C)C(=O)N[C@H](Cc1c[nH]cn1)C(=O)N[C@H](C)C(=O)N[C@H](C)C(=O)N[C@H](CCCCN)C(=O)N[C@H](CCCCN)C(=O)N[C@H](Cc1ccccc1)C(=O)N[C@H](C)C(=O)N[C@H](CCCCN)C(=O)N[C@H](C)C(=O)N[C@H](Cc1ccccc1)C(=O)N[C@@H](C(=O)N[C@H](C)C(=O)N[C@H](CCC(=O)O)C(=O)N[C@@H](C(=O)N[C@H](CCSC)C(=O)N[C@H](CC(N)=O)C(=O)N[C@H](CO)C(N)=O)[C@H](C)CC)C(C)C [D-Magainin 2 derivative, reference compound] (H-G[dI]G[dK][dF][dL][dH][dA][dA][dK][dK][dF][dA][dK][dA][dF][dV][dA][dE][dI][dM][dN][dS]-NH2; N-terminus assumed) | >128 | inactive | 48 | 
